Test results reported in US9938273B2 (Plexxikon Inc., priority 2015, dated 2018).

How the values were obtained:
FLT3-D835Y = target: T1, FLT3-D835Y (Homo sapiens, UniProt P36888, D835Y); assay: AlphaScreen kinase assay with recombinant enzyme, FLT3-D835Y; assay type: biochemical; settings: 8pt, GMean
T1 construct: purchased Invitrogen PV3967
T1 sequence (P36888 27-993 D835Y): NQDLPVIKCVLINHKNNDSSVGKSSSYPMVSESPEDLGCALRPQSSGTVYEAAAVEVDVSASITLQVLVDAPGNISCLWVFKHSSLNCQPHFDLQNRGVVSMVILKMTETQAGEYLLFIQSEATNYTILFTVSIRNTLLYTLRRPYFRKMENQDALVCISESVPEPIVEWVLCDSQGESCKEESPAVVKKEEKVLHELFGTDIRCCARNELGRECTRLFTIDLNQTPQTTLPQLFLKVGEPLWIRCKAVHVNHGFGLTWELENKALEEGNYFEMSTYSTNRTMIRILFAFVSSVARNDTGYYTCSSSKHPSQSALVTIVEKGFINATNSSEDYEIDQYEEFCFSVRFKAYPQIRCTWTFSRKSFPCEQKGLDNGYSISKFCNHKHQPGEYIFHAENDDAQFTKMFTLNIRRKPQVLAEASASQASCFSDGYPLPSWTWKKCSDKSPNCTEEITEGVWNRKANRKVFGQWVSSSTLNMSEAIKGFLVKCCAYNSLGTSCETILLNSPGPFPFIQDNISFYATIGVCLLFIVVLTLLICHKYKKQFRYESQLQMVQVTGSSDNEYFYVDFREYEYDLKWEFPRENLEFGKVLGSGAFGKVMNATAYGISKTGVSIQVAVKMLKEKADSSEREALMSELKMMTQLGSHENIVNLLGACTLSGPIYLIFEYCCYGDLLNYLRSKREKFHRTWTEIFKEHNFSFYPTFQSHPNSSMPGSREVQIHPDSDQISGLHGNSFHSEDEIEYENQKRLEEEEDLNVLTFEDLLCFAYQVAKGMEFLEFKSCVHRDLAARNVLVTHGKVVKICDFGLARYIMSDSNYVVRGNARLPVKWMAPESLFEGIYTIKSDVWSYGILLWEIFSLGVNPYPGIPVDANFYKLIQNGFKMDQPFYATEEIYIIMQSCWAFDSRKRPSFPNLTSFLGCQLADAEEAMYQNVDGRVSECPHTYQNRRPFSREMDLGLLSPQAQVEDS
Procedure, shortened: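 AlphaScreen, biotinylated poly(Glu4-Tyr) 30 nM final; PY20 anti-pTyr acceptor and streptavidin donor beads 10 μg/mL; IC50 final conc. 10 μM (FLT3-D835Y, FLT3-ITD) / 100 μM (c-KIT); detection incubations 20 + 60 min RT; 580 nm emission.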

[1] = tested on: MOLM-14 F691L cells, FLT3 ITD and FLT3 F691L; assay: Cell proliferation assay (CellTiter-Glo), MOLM-14 F691L; assay type: cell-based; settings: Homo sapiens, 72 h, 3d-Growth, GMean
From the text: The FLT3 inhibitors may be assessed using the MOLM-14, Acute Myeloid Leukemia cell line that endogenously expresses FLT3 ITD or derivatives of the human FLT3 AML cell line which acquired the D835Y (activation loop) of F691L (gatekeeper) mutation after selection in escalating doses of the FLT3 Inhibitor AC220. FLT3 inhibitors may also be assessed using cells that are engineered to express mutant FLT3. For engineered cells, murine Ba/F3 cells were transfected with full-length FLT3 ITD/D835Y mutations. The parental BA/F3 cells are dependent upon Interleukin-3 (IL-3) for survival, and introduction of the FLT3 constructs rendered these cells dependent upon FLT3 kinase activity when cultured in the absences of IL-3. Engineered BA/F3 cell growth assays can be performed in either the […] of IL-3, to assess the compound inhibition of FLT3 or to detect the presence of off-target activity, respectively. Inhibitors of FLT3 kinase activity reduce or eliminate the FLT3 oncogenic signaling, resulting in reduced cell proliferation. This inhibition is measured as a function of compound concentration to asses IC50 values.
Cell lines used in proliferation assays are as follows in Table 3:
Cells were seeded at 1×10^4 cells per well of a 96 well cell culture plate in 50 μl of cell culture medium. Compounds were dissolved in DMSO, typically at a concentration of 0.5 mM and were serially diluted 1:3 for a total of eight points and added to the cells to final concentrations of […], 0.0041, 0.0014 and 0.00046 μM in 100 μl cell culture medium (final concentration 0.2% DMSO). […] The cells were incubated at 37° C., 5% CO2 for three days. CellTiter-Glo Buffer (Promega Cell Viability Assay catalog #G7573) and substrate were equilibrated to room temperature, and enzyme/substrate Recombinant Firefly Luciferase/Beetle Luciferin was reconstituted. The cell plates were equilibrated to room temperature for 30 minutes, then lysed by addition of an equivalent volume of the Celltiter-Glo Reagent. The plate was mixed for 10 minutes on a plate shaker to lyse the cells. The plates were read on a Tecan M1000 using Luminescence protocol modified to read 0.1 s per well. The luminescence reading assesses the ATP content, which correlates directly with cell number such that the reading as a function of compound concentration was used to determine the IC50 value.

| Compound | IC50 (FLT3-D835Y) [µM] | IC50 [1] [µM] |
| --- | --- | --- |
| N#CC1CCN(C(=O)c2cccc(-c3cnc4[nH]c(-c5cnn(C(F)F)c5)cc4c3)n2)C1 (stereo not shown) [Compound P-0134, 1-[6-[2-[1-(difluoromethyl)pyrazol-4-yl]-1H-pyrrolo[2,3-b]pyridin-5-yl]pyridine-2-carbonyl]pyrrolidine-3-carbonitrile] | 0.0001 to 10 | 0.0001 to 10 |
| N#CC1CCN(C(=O)c2cccc(-c3cnc4[nH]c(C5=CCN(C(=O)C6CC6)C5)cc4c3)n2)C1 (stereo not shown) [Compound P-0136, 1-[6-[2-[1-(cyclopropanecarbonyl)-2,5-dihydropyrrol-3-yl]-1H-pyrrolo[2,3-b]pyridin-5-yl]pyridine-2-carbonyl]pyrrolidine-3-carbonitrile] | 0.0001 to 10 | 0.0001 to 10 |
| N#CC1(CNC(=O)c2cccc(-c3cnc4[nH]c(-c5ccccc5)cc4c3)n2)CC1 [Compound P-0137, N-[(1-cyanocyclopropyl)methyl]-6-(2-phenyl-1H-pyrrolo[2,3-b]pyridin-5-yl)pyridine-2-carboxamide] | 0.0001 to 10 | 0.0001 to 10 |
| CC(C)(C#N)CNC(=O)c1cccc(-c2cnc3[nH]c(-c4ccccc4)c(Cl)c3c2)n1 [Compound P-0138, 6-(3-chloro-2-phenyl-1H-pyrrolo[2,3-b]pyridin-5-yl)-N-(2-cyano-2-methyl-propyl)pyridine-2-carboxamide] | 0.0001 to 10 | 0.0001 to 10 |
| CC(C)(C)NC(=O)c1cccc(-c2cnc3[nH]c(-c4ccccc4)cc3c2)n1 [Compound P-0140, N-tert-butyl-6-(2-phenyl-1H-pyrrolo[2,3-b]pyridin-5-yl)pyridine-2-carboxamide] | 0.0001 to 10 | 0.0001 to 10 |
| CC(C)(C#N)CNC(=O)c1cccc(-c2cnc3[nH]c(C4=CCN(C(=O)C5CC5)C4)cc3c2)n1 [Compound P-0141, N-(2-cyano-2-methyl-propyl)-6-[2-[1-(cyclopropanecarbonyl)-2,5-dihydropyrrol-3-yl]-1H-pyrrolo[2,3-b]pyridin-5-yl]pyridine-2-carboxamide] | 0.0001 to 10 | 0.0001 to 10 |
| CC(C)(C#N)CNC(=O)c1cccc(-c2cnc3[nH]c(-c4ccc(F)cc4)cc3c2)n1 [Compound P-0144, N-(2-cyano-2-methyl-propyl)-6-[2-(4-fluorophenyl)-1H-pyrrolo[2,3-b]pyridin-5-yl]pyridine-2-carboxamide] | 0.0001 to 10 | 0.0001 to 10 |
| CC(C)(C#N)NC(=O)c1cccc(-c2cnc3[nH]c(-c4ccc(F)cc4)cc3c2)n1 [Compound P-0145, N-(1-cyano-1-methyl-ethyl)-6-[2-(4-fluorophenyl)-1H-pyrrolo[2,3-b]pyridin-5-yl]pyridine-2-carboxamide] | 0.0001 to 10 | 0.0001 to 10 |
| N#CC1(NC(=O)c2cccc(-c3cnc4[nH]c(-c5ccccc5)cc4c3)n2)CCCC1 [Compound P-0146, N-(1-cyanocyclopentyl)-6-(2-phenyl-1H-pyrrolo[2,3-b]pyridin-5-yl)pyridine-2-carboxamide] | 0.0001 to 10 | 0.0001 to 10 |
| N#CCCNC(=O)c1cccc(-c2cnc3[nH]c(-c4ccccc4)c(Br)c3c2)n1 [Compound P-0147, 6-(3-bromo-2-phenyl-1H-pyrrolo[2,3-b]pyridin-5-yl)-N-(2-cyanoethyl)pyridine-2-carboxamide] | 0.0001 to 10 | 0.0001 to 10 |
| CC(C)(O)CNC(=O)c1cccc(-c2cnc3[nH]c(-c4ccccc4)cc3c2)n1 [Compound P-0150, N-(2-hydroxy-2-methyl-propyl)-6-(2-phenyl-1H-pyrrolo[2,3-b]pyridin-5-yl)pyridine-2-carboxamide] | 0.0001 to 10 | 0.0001 to 10 |
| CC(C)(C#N)CNC(=O)c1cccc(-c2cnc3[nH]c(-c4cnn(C(F)F)c4)cc3c2)n1 [Compound P-0153, N-(2-cyano-2-methyl-propyl)-6-[2-[1-(difluoromethyl)pyrazol-4-yl]-1H-pyrrolo[2,3-b]pyridin-5-yl]pyridine-2-carboxamide] | 0.0001 to 10 | 0.0001 to 10 |
| O=C(NC1(C(F)(F)F)CC1)c1cccc(-c2cnc3[nH]c(-c4ccccc4)cc3c2)n1 [Compound P-0156, 6-(2-phenyl-1H-pyrrolo[2,3-b]pyridin-5-yl)-N-[1-(trifluoromethyl)cyclopropyl]pyridine-2-carboxamide] | 0.0001 to 10 | 0.0001 to 10 |
| CC(C)(C#N)CNC(=O)c1cccc(-c2cnc3[nH]c(C4=CCC(F)(F)CC4)cc3c2)n1 [Compound P-0157, N-(2-cyano-2-methyl-propyl)-6-[2-(4,4-difluorocyclohexen-1-yl)-1H-pyrrolo[2,3-b]pyridin-5-yl]pyridine-2-carboxamide] | 0.0001 to 10 | 0.0001 to 10 |
| CC(C)(C#N)CNC(=O)c1cccc(-c2cnc3[nH]c(C4=CCS(=O)(=O)CC4)cc3c2)n1 [Compound P-0160, N-(2-cyano-2-methyl-propyl)-6-[2-(1,1-dioxo-3,6-dihydro-2H-thiopyran-4-yl)-1H-pyrrolo[2,3-b]pyridin-5-yl]pyridine-2-carboxamide] | 0.0001 to 10 | 0.0001 to 10 |
| CC(C)(C#N)CNC(=O)c1cccc(-c2cnc3[nH]c(C4=CC[S+]([O-])CC4)cc3c2)n1 (stereo not shown) [Compound P-0161, N-(2-cyano-2-methyl-propyl)-6-[2-(1-oxo-3,6-dihydro-2H-thiopyran-4-yl)-1H-pyrrolo[2,3-b]pyridin-5-yl]pyridine-2-carboxamide] | 0.0001 to 10 | 0.0001 to 10 |
| CC(C)(C#N)CNC(=O)c1cccc(-c2cnc3[nH]c(C4=CCN(C(=O)C5CC5)CC4)cc3c2)n1 [Compound P-0162, N-(2-cyano-2-methyl-propyl)-6-[2-[1-(cyclopropanecarbonyl)-3,6-dihydro-2H-pyridin-4-yl]-1H-pyrrolo[2,3-b]pyridin-5-yl]pyridine-2-carboxamide] | 0.0001 to 10 | 0.0001 to 10 |
| CC(C)(C#N)NC(=O)c1cccc(-c2cnc3[nH]c(-c4cnn(C(F)F)c4)cc3c2)n1 [Compound P-0164, N-(2-cyanopropan-2-yl)-6-(2-(1-(difluoromethyl)-1H-pyrazol-4-yl)-1H-pyrrolo[2,3-b]pyridin-5-yl)picolinamide] | 0.0001 to 10 | 0.0001 to 10 |
| CC(C)(C#N)NC(=O)c1cccc(-c2cnc3[nH]c(-c4cnn(C5CC5)c4)cc3c2)n1 [Compound P-0165, N-(1-cyano-1-methyl-ethyl)-6-[2-(1-cyclopropylpyrazol-4-yl)-1H-pyrrolo[2,3-b]pyridin-5-yl]pyridine-2-carboxamide] | 0.0001 to 10 | 0.0001 to 10 |
| CC(C)(C#N)NC(=O)c1cccc(-c2cnc3[nH]c(-c4cnc(C5CC5)nc4)cc3c2)n1 [Compound P-0166, N-(1-cyano-1-methyl-ethyl)-6-[2-(2-cyclopropylpyrimidin-5-yl)-1H-pyrrolo[2,3-b]pyridin-5-yl]pyridine-2-carboxamide] | 0.0001 to 10 | 0.0001 to 10 |
